According to US11001590B2, “Pyrazolopyrimidine derivatives” (BAYER ANIMAL HEALTH GMBH, priority 2016, dated 2021):

Target: C. elegans Slo-1a (Caenorhabditis elegans, UniProt Q95V25)
Experiment: In vitro assay 1: C. elegans Slo-1a, action at a recombinant C. elegans CHO cell line (membrane potential measurement)
Settings: CHO cells expressing C. elegans Slo-1a; voltage sensitive dye, FLIPR Tetra; negative decadic logarithm of EC50

Chain of C. elegans Slo-1a (Q95V25 whole entry): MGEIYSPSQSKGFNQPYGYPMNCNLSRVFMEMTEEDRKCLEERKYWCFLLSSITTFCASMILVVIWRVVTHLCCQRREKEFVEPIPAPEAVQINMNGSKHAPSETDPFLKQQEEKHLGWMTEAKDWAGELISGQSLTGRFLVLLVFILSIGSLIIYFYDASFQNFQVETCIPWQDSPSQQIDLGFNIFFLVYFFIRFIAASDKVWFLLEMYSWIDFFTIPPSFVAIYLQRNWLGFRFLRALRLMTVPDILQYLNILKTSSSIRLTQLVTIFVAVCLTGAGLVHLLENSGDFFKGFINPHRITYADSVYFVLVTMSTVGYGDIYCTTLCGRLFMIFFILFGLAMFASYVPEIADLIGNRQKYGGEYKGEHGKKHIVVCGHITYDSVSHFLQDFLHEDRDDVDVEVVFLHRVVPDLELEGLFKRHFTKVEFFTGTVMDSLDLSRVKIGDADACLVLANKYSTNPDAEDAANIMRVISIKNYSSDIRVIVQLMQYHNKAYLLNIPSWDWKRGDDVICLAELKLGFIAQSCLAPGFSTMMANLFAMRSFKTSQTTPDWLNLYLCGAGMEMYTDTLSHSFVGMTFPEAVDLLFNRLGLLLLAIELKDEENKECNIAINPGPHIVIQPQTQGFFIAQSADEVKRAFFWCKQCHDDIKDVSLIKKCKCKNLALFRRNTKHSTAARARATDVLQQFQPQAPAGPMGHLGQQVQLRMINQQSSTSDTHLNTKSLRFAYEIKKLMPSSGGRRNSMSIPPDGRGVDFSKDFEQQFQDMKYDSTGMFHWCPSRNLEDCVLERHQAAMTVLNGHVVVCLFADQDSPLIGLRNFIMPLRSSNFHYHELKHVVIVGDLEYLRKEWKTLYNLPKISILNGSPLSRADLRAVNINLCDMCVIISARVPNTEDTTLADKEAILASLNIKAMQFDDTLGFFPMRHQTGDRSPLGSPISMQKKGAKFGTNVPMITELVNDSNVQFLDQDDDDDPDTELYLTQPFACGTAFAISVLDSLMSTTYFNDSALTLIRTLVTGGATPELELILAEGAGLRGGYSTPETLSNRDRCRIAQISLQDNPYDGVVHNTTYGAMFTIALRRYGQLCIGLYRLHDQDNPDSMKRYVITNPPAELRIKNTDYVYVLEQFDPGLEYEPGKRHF

Row | SMILES | pE50
1 | CC(C)c1c(C(=O)N[C@H]2CCc3ccccc32)cnc2c(-c3ccc(Cl)cc3)cnn12 [Example 23] | 7.2
2 | Cc1nn2c(N(C)C)c(C(=O)N[C@H]3CCOc4ccccc43)cnc2c1-c1cc(C(F)(F)F)ccc1F [Example 547] | 8.9
3 | COc1c(F)ccc(-c2c(C(F)F)nn3c(C(C)C)c(C(=O)N[C@H]4CCOc5ccccc54)cnc23)c1F [Example 502] | 8.6
4 | CC(C)c1c(C(=O)N[C@H]2CCc3ccccc32)cnc2c(-c3cccc(F)c3F)c(Cl)nn12 [Example 285] | 8
5 | Cc1nn2c(C)c(C(=O)N[C@H]3CCc4ccccc43)cnc2c1-c1cccc(C(F)(F)F)c1 [Example 16] | 6.7
6 | Cc1nn2c(N(C)C)c(C(=O)N[C@H]3CCOc4ccccc43)cnc2c1-c1ccc(F)c(N(C)C)c1F [Example 550] | 8.7
7 | Cc1nn2c(N(C)C)c(C(=O)N[C@H]3CCOc4ccccc43)cnc2c1-c1c(F)ccc(F)c1F [Example 554] | 8.7
8 | CCc1c(C(=O)N[C@H]2CCOc3ccccc32)cnc2c(-c3cccc(F)c3F)c(C)nn12 [Example 477] | 8.2
9 | CC(C)c1c(C(=O)N[C@H]2CCOc3ccccc32)cnc2c(-c3c(F)ccc(Cl)c3F)c(C(F)F)nn12 [Example 277] | 8.8
10 | Cc1nn2c(C)c(C(=O)N[C@H]3CCCc4ccccc43)cnc2c1-c1ccccc1Cl [Example 9] | 7.8
11 | Cc1nn2c(C3CC3)c(C(=O)N[C@H]3CCOc4ccccc43)cnc2c1-c1cccc(O)c1 [Example 501] | 6.3
12 | Cc1nn2c(C)c(C(=O)N[C@H]3CCCc4ccccc43)cnc2c1-c1cccc(C(F)(F)F)c1 [Example 15] | 6.7
13 | Cc1nn2c(C3CC3)c(C(=O)N[C@H]3CCOc4ccccc43)cnc2c1-c1cc(C(F)(F)F)ccc1Cl [Example 509] | 8.9
14 | O=C(N[C@H]1CCOc2ccccc21)c1cnc2c(-c3ccc(F)c(F)c3F)c(C(F)F)nn2c1C1CC1 [Example 498] | 8.3
15 | Cc1nn2c(C3CC3)c(C(=O)N[C@H]3CCOc4ccccc43)cnc2c1-c1cccc(Cl)c1F [Example 480] | 8.9
16 | CCc1c(C(=O)N[C@H]2CCOc3ccccc32)cnc2c(-c3cccc(Cl)c3Cl)c(C)nn12 [Example 484] | 8.6
17 | Cc1ccccc1-c1c(C)nn2c(N(C)C)c(C(=O)N[C@H]3CCOc4ccccc43)cnc12 [Example 553] | 8.2
18 | CC(C)c1c(C(=O)N[C@H]2CCOc3ccccc32)cnc2c(-c3ccc(F)c(F)c3F)c(C(F)F)nn12 [Example 508] | 8.2
19 | CC(C)c1c(C(=O)N[C@H]2CCOc3ccccc32)cnc2c(-c3ccc(Cl)cc3Cl)c(C(F)F)nn12 [Example 507] | 8.1
20 | Cc1nn2c(N(C)C3CC3)c(C(=O)N[C@H]3CCOc4ccccc43)cnc2c1-c1cc(Cl)cc(Cl)c1 [Example 555] | 7.6
21 | CCc1c(C(=O)N[C@H]2CCOc3ccccc32)cnc2c(-c3cc(Cl)c(F)c(Cl)c3)c(C)nn12 [Example 497] | 8
22 | COc1c(F)ccc(-c2c(C)nn3c(N(C)C)c(C(=O)N[C@H]4CCOc5ccccc54)cnc23)c1F [Example 551] | 8.9
23 | O=C(N[C@H]1CCOc2ccccc21)c1cnc2c(-c3cccc(F)c3F)c(C(F)F)nn2c1C1CC1 [Example 270] | 8.4
24 | CCc1c(C(=O)N[C@H]2CCOc3ccccc32)cnc2c(-c3ccc(F)c(F)c3)c(C)nn12 [Example 487] | 7.7

Row | SMILES | pE50
25 | Cc1nn2c(C(C)C)c(C(=O)N[C@H]3CCOc4ccccc43)cnc2c1-c1ccc(F)c(N(C)C)c1F [Example 283] | 9.3
26 | O=C(N[C@H]1CCOc2ccccc21)c1cnc2c(-c3ccc(F)c(F)c3)c(C(F)F)nn2c1C1CC1 [Example 274] | 7.7
27 | O=C(N[C@H]1CCOc2ccccc21)c1cnc2c(-c3c(F)cccc3F)c(C(F)F)nn2c1C1CC1 [Example 493] | 8.7
28 | O=C(N[C@H]1CCOc2ccccc21)c1cnc2c(-c3c(F)ccc(Cl)c3F)c(C(F)F)nn2c1C1CC1 [Example 280] | 8.9
29 | CC(C)c1c(C(=O)N[C@H]2CCOc3ccccc32)cnc2c(-c3cccc(Cl)c3)c(C(F)F)nn12 [Example 276] | 8
30 | Cc1nn2c(N3CCOCC3)c(C(=O)N[C@H]3CCOc4ccccc43)cnc2c1-c1ccc(F)c(N(C)C)c1F [Example 543] | 8.6
31 | O=C(N[C@H]1CCOc2ccccc21)c1cnc2c(-c3c(Cl)cccc3Cl)c(C(F)F)nn2c1C1CC1 [Example 271] | 8.5
32 | CC(C)c1c(C(=O)N[C@H]2CCCc3ccccc32)cnc2c(-c3ccccc3Cl)cnn12 [Example 21] | 6.5
33 | COc1c(F)ccc(-c2c(C)nn3c(C4CC4)c(C(=O)N[C@H]4CCOc5ccccc54)cnc23)c1F [Example 284] | 9.1
34 | Cc1nn2c(N(C)CCN3CCCC3=O)c(C(=O)N[C@H]3CCOc4ccccc43)cnc2c1-c1cc(Cl)cc(Cl)c1 [Example 560] | 8.2
35 | Cc1nn2c(N(C)C)c(C(=O)N[C@H]3CCOc4ccccc43)cnc2c1-c1cccc(F)c1F [Example 549] | 8.4
36 | Cc1nn2c(C(C)C)c(C(=O)N[C@H]3CCc4ccccc43)cnc2c1-c1ccccc1Cl [Example 20] | 7.9
37 | CC(C)c1c(C(=O)N[C@H]2CCCc3ccccc32)cnc2c(-c3ccc(Cl)cc3)cnn12 [Example 25] | 6.6
38 | Cc1nn2c(C(C)C)c(C(=O)N[C@H]3CCOc4ccccc43)cnc2c1-c1cccc2[nH]ccc12 [Example 481] | 7.7
39 | Cc1nn2c(C3CC3)c(C(=O)N[C@H]3CCOc4ccccc43)cnc2c1-c1cccc2c1CCO2 [Example 510] | 8.6
40 | CC(C)c1c(C(=O)N[C@H]2CCOc3ccccc32)cnc2c(-c3c(F)cccc3Cl)c(C(F)F)nn12 [Example 506] | 8.1
41 | CCc1c(C(=O)N[C@H]2CCOc3ccccc32)cnc2c(-c3ccc(Cl)cc3Cl)c(C)nn12 [Example 485] | 8.2
42 | CC(C)c1c(C(=O)N[C@H]2CCOc3ccccc32)cnc2c(-c3cccc(Cl)c3)c(Cl)nn12 [Example 275] | 7.9
43 | Cc1nn2c(C)c(C(=O)N[C@H]3CCc4ccccc43)cnc2c1-c1ccc(Cl)cc1 [Example 27] | 7.2
44 | Cc1nn2c(C(C)C)c(C(=O)N[C@H]3CCc4ccccc43)cnc2c1-c1ccc(Cl)cc1 [Example 32] | 7.5
45 | CCc1c(C(=O)N[C@H]2CCOc3ccccc32)cnc2c(-c3c(Cl)cccc3Cl)c(C)nn12 [Example 491] | 8.3
46 | O=C(N[C@H]1CCOc2ccccc21)c1cnc2c(-c3cc(Cl)c(F)c(Cl)c3)c(C(F)F)nn2c1C1CC1 [Example 272] | 7.6
47 | COCCOCCOCCN(C)c1c(C(=O)N[C@H]2CCOc3ccccc32)cnc2c(-c3cc(Cl)cc(Cl)c3)c(C)nn12 [Example 561] | 8.2
48 | COc1c(F)ccc(-c2c(C(F)F)nn3c(C4CC4)c(C(=O)N[C@H]4CCOc5ccccc54)cnc23)c1F [Example 269] | 9

Row | SMILES | pE50
49 | O=C(N[C@H]1CCOc2ccccc21)c1cnc2c(-c3cccc(Cl)c3)c(C(F)F)nn2c1C1CC1 [Example 273] | 8.3
50 | Cc1nn2c(N(C)C)c(C(=O)N[C@H]3CCOc4ccccc43)cnc2c1-c1cccc(Cl)c1F [Example 552] | 8.7
51 | O=C(N[C@H]1CCOc2ccccc21)c1cnc2c(-c3cccc(Cl)c3Cl)c(C(F)F)nn2c1C1CC1 [Example 512] | 8.9
52 | Cc1nn2c(N3CCOCC3)c(C(=O)N[C@H]3CCOc4ccccc43)cnc2c1-c1c(F)ccc(Cl)c1F [Example 545] | 8.8
53 | Cc1nn2c(C)c(C(=O)N[C@H]3CCc4ccccc43)cnc2c1-c1ccccc1Cl [Example 14] | 7.7
54 | CC(C)c1c(C(=O)N[C@H]2CCc3ccccc32)cnc2c(-c3cccc(C(F)(F)F)c3)cnn12 [Example 37] | 6.7
55 | CCc1c(C(=O)N[C@H]2CCOc3ccccc32)cnc2c(-c3ccc(F)c(OC)c3F)c(C)nn12 [Example 496] | 8.9
56 | COc1c(F)cc(F)c(-c2c(C)nn3c(C4CC4)c(C(=O)N[C@H]4CCOc5ccccc54)cnc23)c1F [Example 482] | 9.2
57 | O=C(N[C@H]1CCOc2ccccc21)c1cnc2c(-c3cc(Cl)ccc3Cl)c(C(F)F)nn2c1C1CC1 [Example 492] | 8.9
58 | CC(C)c1c(C(=O)N[C@H]2CCc3ccccc32)cnc2c(-c3cccc(Cl)c3)cnn12 [Example 40] | 6.5
59 | Cc1nn2c(C(C)C)c(C(=O)N[C@H]3CCc4ccccc43)cnc2c1-c1cc(Cl)cc(Cl)c1 [Example 8] | 7.5
60 | CCc1c(C(=O)N[C@H]2CCOc3ccccc32)cnc2c(-c3c(F)cccc3Cl)c(C)nn12 [Example 479] | 8.2
61 | O=C(N[C@H]1CCOc2ccccc21)c1cnc2c(-c3c(F)cccc3Cl)c(C(F)F)nn2c1C1CC1 [Example 499] | 8.5
62 | CCc1c(C(=O)N[C@H]2CCOc3ccccc32)cnc2c(-c3cccc(Cl)c3)c(C)nn12 [Example 488] | 8.2
63 | CC(C)c1c(C(=O)N[C@H]2CCOc3ccccc32)cnc2c(-c3ccc(F)c(F)c3)c(Cl)nn12 [Example 500] | 7.7
64 | CC(C)c1c(C(=O)N[C@H]2CCOc3ccccc32)cnc2c(-c3cc(Cl)ccc3Cl)c(C(F)F)nn12 [Example 494] | 8.5
65 | CC(C)c1c(C(=O)N[C@H]2CCOc3ccccc32)cnc2c(-c3ccc(F)c(F)c3)c(C(F)F)nn12 [Example 278] | 7.5
66 | CCc1c(C(=O)N[C@H]2CCOc3ccccc32)cnc2c(-c3ccc(F)c(F)c3F)c(C)nn12 [Example 490] | 8.3
67 | Cc1nn2c(C3CC3)c(C(=O)N[C@H]3CCOc4ccccc43)cnc2c1-c1cc(C(F)(F)F)ccc1F [Example 504] | 8.9
68 | CC(C)c1c(C(=O)N[C@H]2CCOc3ccccc32)cnc2c(-c3cccc(Cl)c3Cl)c(C(F)F)nn12 [Example 505] | 8.5
69 | Cc1nn2c(C(C)C)c(C(=O)N[C@H]3CCOc4ccccc43)cnc2c1-c1cccc2c1ccn2C [Example 483] | 7.8
70 | Cc1nn2c(C(C)C)c(C(=O)N[C@H]3CCCc4ccccc43)cnc2c1-c1ccc(Cl)cc1 [Example 29] | 6.7
